Biological target: T1, human equilibrative nucleoside transporter (hENT1) (Homo sapiens, UniProt Q99808)
T1 construct: gene SLC29A1; endogenous transporter in intact human erythrocytes
T1 sequence (Q99808 2-456): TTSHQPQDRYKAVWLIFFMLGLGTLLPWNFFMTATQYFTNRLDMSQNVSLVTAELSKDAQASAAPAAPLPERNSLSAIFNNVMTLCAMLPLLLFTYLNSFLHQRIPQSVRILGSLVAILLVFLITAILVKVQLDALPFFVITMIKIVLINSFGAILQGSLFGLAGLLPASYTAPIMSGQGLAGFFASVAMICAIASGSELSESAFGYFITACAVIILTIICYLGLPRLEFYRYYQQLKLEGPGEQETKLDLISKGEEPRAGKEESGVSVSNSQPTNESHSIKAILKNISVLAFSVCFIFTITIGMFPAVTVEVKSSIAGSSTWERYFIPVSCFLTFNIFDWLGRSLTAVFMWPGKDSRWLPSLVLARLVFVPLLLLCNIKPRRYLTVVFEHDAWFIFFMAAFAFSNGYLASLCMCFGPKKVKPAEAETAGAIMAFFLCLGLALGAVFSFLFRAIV
Assay: saturable [3H]-uridine uptake into uninfected human erythrocytes (Km)
Format: cell-based

O=c1ccn([C@@H]2O[C@H](CO)[C@@H](O)[C@H]2O)c(=O)[nH]1 [uridine]
Km: 177 ± 30 µM

From publication PMC2825241, “Uptake of purines in Plasmodium falciparum-infected human erythrocytes is mostly mediated by the human Equilibrative Nucleoside Transporter and the human Facilitative Nucleobase Transporter” (2010)
